In US4618682A, “2-amino-4,5-dihydro-1H-imidazole-1-carboxanilides” (McNeilab, Inc., priority 1985, dated 1986):
Counter-ions that a name gives are not always drawn.

Key:
Gastric fistula rat = assay: acute gastric fistula rat test (antisecretory screen); assay type: in vivo, Female Sprague-Dawley rats
Method: The principal antisecretory screen is the acute gastric fistula rat test which is carried out as follows: Female Sprague-Dawley rats are used for this study. The weights range from 125-250 gms; however, weights in any given test have a range of ±20 gms. The rats are fasted 24 hours before testing, water is given ad lib. At the time of fasting, the rats are placed in individual cages with wide mesh bottoms. This eliminates the problem of cannibalism and coprophagia. On the day of testing, the rats are weighed beforehand to determine the weight range and to allow for even distribution. Surgery is carried out under light ether anesthesia. As soon as the rat is anesthetized, its teeth are removed using a small pinch pliers. A midline incision is made on the abdomen about 11/2 cm long and the stomach is exposed. If, at this point, the stomach is filled with food or fecal material, the rat is discarded except for orally administered rats. In this case, the stomach contents are gently squeezed into the duodenum. Using a 4-0 polyester fiber suture, a purse string stitch is placed on the fundic portion of the stomach taking care to avoid any blood vessels in the area. A small nick is made into the stomach in the center of the purse string and a cannula, consisting of a small vinyl tube with a flange on one end, is put into the stomach and the purse string is closed tightly around the flange. Immediately following this, the rat is dosed intraduodenally using a volume of 0.5 ml per 100 gm body weight. The abdominal wall and skin are closed simultaneously with three to four 18 mm wound clips. The rat is then placed in a box containing a longitudinal slit which allows the cannula to hang freely and the rat is able to move about unencumbered. At the completion of the procedure, the time is marked 0 minutes. The rat is allowed to stabilize for 30 minutes, at which time the collection tube is discarded and replaced with a clean collection tube to receive the gastric juice. Only a one-hour collection is made for a screening study. In evaluation studies, one- and two-hour collections are made. At the end of the study, the cannula is pulled out and the rat is sacrificed. The gastric contents collected are drained into a centrifuge tube and centrifuged to pack down the sediment. The volume is read and a 1 ml aliquot of the supernatant is put into a beaker containing distilled water and titrated to pH 7 using 0.01 N NaOH. Mean values are determined for volume, titratable acid and total acid output where volume equals total ml of gastric juice minus sediment, titratable acid (mEq/1) equals amount of 0.01 N NaOH needed to titrate the acid to pH 7 times 10 and total acid output equals titratable acid times volume. Results are reported in percent inhibition over control values. In studies using oral administration, the drugs are dosed in a volume of 1 ml per 100 gm body weight one hour before surgery (pretreatment equals 90 minutes). In subcutaneous studies, the drug may be given immediately after the surgical procedure (pretreatment equals 30 minutes) or after the 30-minute stabilization period when the collection tube is changed (pretreatment time equals 0 minutes). The volume used in subcutaneous studies is 0.2 ml per 100 gm body weight.

[1] = tested on: Spontaneously hypertensive rat; assay: Rodent Antihypertensive Screen (arterial pressure and heart rate, aortic cannula); assay type: in vivo, adult spontaneously hypertensive rats (Charles River); settings: 35 mg/kg p.o., spontaneously hypertensive rat
Description: This test evaluates compounds for effects on arterial pressure and heart rate. In this test, the arterial pressure of adult spontaneously hypertensive rats (Charles River) is monitored directly via an aortic cannula. Rats are anesthetized with an inhalation anesthetic (methoxyflurane). The left carotid artery is isolated and cannulated. The tip of the cannula is advanced to the aorta and the cannula is exteriorized behind the neck at the level of the scapula. Animals are placed in individual cages and allowed to recover from the anesthetic and are kept unrestrained. The arterial cannula is connected to the pressure transducer which is attached to the recorder. Heart rate is determined from the arterial pressure recording. The test compounds are administered either orally (p.o.) by gavage or by intraperitoneal (i.p.) injection. The arterial pressure and heart rate are monitored for a minumum of 24 hours. A test compound is considered to be active as an antihypertensive agent if the mean arterial pressure (MAP) indicates a fall of >15 mm of Hg. Each animal serves as his own control. The results of this test employing at least 3 rats per dose level for each compound and performed with various compounds of the present invention are shown in Table I.

[2] = heat sensitivity of isolated salt; assay type: physicochemical
Method: Maintained a temperature of -10° to -13° C. throughout the addition and stirred at -10° to -15° for 3 more hours. Stored the reaction mixture in the refrigerator at +4° C. overnight. Allowed to warm to +10° C. then placed in ice/ H2 O bath and acidified to pH<3 with 10% HCl. Added to 1400 ml of ice/H2 O and stirred. Filtered some insoluble material and the filtrate basified with solid K2 CO3 (keep cold!) to pH 8-9. Filtered the resulting white solid, the free base of the product. Immediately suspended in 200 ml of MeOH and dissolved by addition of ethereal HCl to pH<3. The solvent and excess HCl were removed in vacuo to yield the crude product, a white solid. The free base was regenerated again as above and converted to the hydrochloride as before. […] 210°--212° C.

With `NC1=NCCN1C(=O)Nc1ccc(Cl)c(Cl)c1` [Example 8, 2-Amino-N-(3,4-dichlorophenyl)-4,5-dihydro-1H-imidazole-1carboxamide Monohydrochloride Monohydrate, Compound with 1,1'Oxybisethane (12:1)] the inhibition in vivo at 20 mg/kg (Gastric fistula rat; intraduodenal, 20 mg/kg I.D., read-out: % Inhibition of gastric secretion) was 96%, the ED50 (Gastric fistula rat; po, 1 hr) was 24.8 mg/kg and the Duration [1] was 2.0 h. The “Effect on heart rate” value [1] was -68 beats/min, the “Max. decr. in MAP” value [1] was 44 mm Hg and the sensitivity to heat [2] was “sensitive to heat”. For the same compound, the “loss of HCl on heating” value ([2]; above 50° /vac) was “may lose HCl”.
